Data reported in ChEMBL document CHEMBL1201862, “PubChem BioAssay data set” (2004).
Calls of active or inactive are those of the source.

What was measured:
A-375 [1] = assay: MITF: Counter assay: A375 proliferation Measured in Cell-Based System Using Plate Reader - 2084-03_Inhibitor_Dose_DryPowder_Activity. [Related pubchem assays (depositor defined):AID488944]; type: functional; conditions: Homo sapiens
A-375 [2] = assay: A375 melanoma cell viability reduction, dose response, counter-screen for MITF modulator project, cherry-pick samples, set 2 (AID 540335); type: functional, cell-based; conditions: Homo sapiens
[3] = target: T1, Replicative DNA helicase DnaB (Mycobacterium tuberculosis, UniProt P9WMR3); assay: DnaB intein splicing inhibitors, dose response, biochemical, cell-free fluorescence (AID 449749); type: functional
T1 sequence (P9WMR3 whole entry): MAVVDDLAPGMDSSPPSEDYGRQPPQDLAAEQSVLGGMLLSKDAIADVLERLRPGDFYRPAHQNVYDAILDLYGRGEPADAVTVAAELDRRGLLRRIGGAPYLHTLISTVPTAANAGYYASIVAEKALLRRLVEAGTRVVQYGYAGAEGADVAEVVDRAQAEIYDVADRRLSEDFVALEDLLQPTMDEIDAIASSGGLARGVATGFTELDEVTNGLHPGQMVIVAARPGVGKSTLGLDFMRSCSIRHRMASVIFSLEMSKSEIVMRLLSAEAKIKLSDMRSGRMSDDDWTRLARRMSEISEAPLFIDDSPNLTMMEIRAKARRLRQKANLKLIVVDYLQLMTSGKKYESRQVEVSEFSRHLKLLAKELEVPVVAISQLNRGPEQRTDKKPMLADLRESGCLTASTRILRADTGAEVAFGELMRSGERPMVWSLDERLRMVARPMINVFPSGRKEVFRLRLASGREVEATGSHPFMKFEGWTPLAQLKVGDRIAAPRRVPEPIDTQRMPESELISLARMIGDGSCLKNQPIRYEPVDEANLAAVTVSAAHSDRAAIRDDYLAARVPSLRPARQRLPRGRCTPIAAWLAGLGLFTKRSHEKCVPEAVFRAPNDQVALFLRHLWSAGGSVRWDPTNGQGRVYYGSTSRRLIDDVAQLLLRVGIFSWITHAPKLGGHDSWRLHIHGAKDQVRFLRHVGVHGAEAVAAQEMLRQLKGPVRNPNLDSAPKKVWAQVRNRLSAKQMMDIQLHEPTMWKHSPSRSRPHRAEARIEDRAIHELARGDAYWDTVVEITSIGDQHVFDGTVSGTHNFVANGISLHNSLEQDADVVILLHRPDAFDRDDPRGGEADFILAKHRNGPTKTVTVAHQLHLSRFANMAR

[4] = inhibitors of Vif binding to APOBEC3G peptide, primary screen, biochemical, TR-FRET, GST-Vif 1-94, biotin-A3G peptide, dose response retest (AID 1117319); type: functional;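 also: TR-FRET signal of purified GST-Vif binding a biotinylated A3G peptide; inhibitors lower the FRET signal by blocking Vif and A3G binding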
[5] = nonselective inhibitors of cellular cAMP signaling, dose response, counter-screen for MC4R biased antagonist project, cell-based, TR-FRET cAMP detection (AID 602305); type: functional;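 also: U2OS cells stimulated with forskolin near its EC80 as the cAMP inducer; potency is for inhibition of forskolin-stimulated cAMP signaling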
[6] = control 3'UTR Renilla luciferase suppression, dose response, counter-screen for Shn3 inhibitor project, cell-based, Clone20-Shn3RL, cherry-picked (AID 624133); type: functional
[7] = cytotoxicity in HEK-293T NF-kB-Luc cells, dose response, cytotoxicity control for B/T-cell NF-kB inhibitor project, cell-based, uHTS hits (AID 489019); type: functional;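 also: IC50 reflects cytotoxicity as loss of cell viability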
Melanocortin receptor 4 = Melanocortin receptor 4 (Homo sapiens, UniProt P32245); assay: MC4R antagonist potency on cAMP, dose response, cell-based, TR-FRET, biased antagonists (AID 602298); type: functional;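 also: antagonist potency against agonist-stimulated cAMP production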
[8] = HepG2 cell cytotoxicity, dose response, cytotoxicity control for Shn3 inhibitor project, CellTiter-Glo, cherry-picked (AID 624134); type: functional, cell-based
[9] = target: T2, Heat shock factor protein 1 (Mus musculus, UniProt P38532); assay: inhibition of MG132-induced HSE-luciferase signal, confirmation, cell-based, NIH3T3, luminescence, dose retest (AID 2382); type: functional;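 also: NIH3T3 fibroblasts with HSF1-driven luciferase reporter stressed by proteasome inhibitor MG132; luminescence from HSF1-driven luciferase expression after 8 hours of MG132 stress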
T2 sequence (P38532 whole entry): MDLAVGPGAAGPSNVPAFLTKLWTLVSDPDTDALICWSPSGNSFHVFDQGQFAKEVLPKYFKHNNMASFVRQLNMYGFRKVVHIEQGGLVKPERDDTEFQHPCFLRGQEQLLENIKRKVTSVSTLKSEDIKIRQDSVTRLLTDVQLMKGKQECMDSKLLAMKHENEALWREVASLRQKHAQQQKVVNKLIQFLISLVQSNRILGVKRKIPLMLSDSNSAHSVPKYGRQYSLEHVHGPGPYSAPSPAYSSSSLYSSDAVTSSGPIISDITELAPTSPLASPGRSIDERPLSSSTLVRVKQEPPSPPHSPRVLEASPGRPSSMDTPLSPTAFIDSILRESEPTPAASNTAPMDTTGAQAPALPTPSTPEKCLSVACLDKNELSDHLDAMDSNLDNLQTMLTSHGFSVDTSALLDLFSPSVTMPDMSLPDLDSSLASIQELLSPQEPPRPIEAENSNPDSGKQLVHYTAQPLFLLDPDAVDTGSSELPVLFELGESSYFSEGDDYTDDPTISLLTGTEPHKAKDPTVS

[10] = growth suppression of beta-catenin-knockout colon cells, dose response, cell-based, HCT116, human colon tumor (AID 1045); type: functional;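 also: HCT116 colon tumor cells with beta catenin knocked out; cells exposed to compound for 60 hours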
Jurkat = assay: antigen receptor-induced NF-kB inhibitors, dose response, Jurkat, luciferase reporter, luminescence, B- and T-cell (AID 489004); type: functional, cell-based; conditions: Homo sapiens;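 also: NF-kB luciferase reporter Jurkat cells stimulated with PMA plus ionomycin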
[11] = growth suppression of PTEN-null colon cells, dose response, cell-based, HCT116 PTEN knockout (AID 1047); type: functional;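 also: HCT116 colon tumor cells with PTEN knocked out; cells exposed to compound for 60 hours before readout; potency for loss of cell viability measured by luminescence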
[12] = Luminescence-based dose response cell-based high throughput screening assay for cytotoxic compounds using the IEC-6 intestinal epithelial cell line. [Related pubchem assays: 1858 (Summary AID.), 1825 (Counterscreen.), 1907 (Confirmation screen.)]; type: functional
[13] = Shn3 3'UTR reporter inhibitors, dose response, cell-based, Clone20 osteoblasts, firefly luciferase, cherry-picked (AID 624132); type: functional;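 also: firefly luciferase luminescence from reporter carrying the Shn3 3'UTR in osteoblasts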
[14] = Vero cell cytotoxicity, dose response, cytotoxicity control for Vif-APOBEC3G degradation inhibitor project, Vero cells (AID 1117358); type: functional; conditions: Human immunodeficiency virus 1, Vero
Protein RecA = target: T3, Protein RecA (Mycobacterium tuberculosis, UniProt P9WHJ3); assay: Fluorescence Cell-Free Homogeneous Dose Retest to Identify Inhibitors of RecA-Intein Splicing Activity. [Related pubchem assays (depositor defined):AID2097, AID2223, AID489010, AID492950]; type: functional
T3 sequence (P9WHJ3 whole entry): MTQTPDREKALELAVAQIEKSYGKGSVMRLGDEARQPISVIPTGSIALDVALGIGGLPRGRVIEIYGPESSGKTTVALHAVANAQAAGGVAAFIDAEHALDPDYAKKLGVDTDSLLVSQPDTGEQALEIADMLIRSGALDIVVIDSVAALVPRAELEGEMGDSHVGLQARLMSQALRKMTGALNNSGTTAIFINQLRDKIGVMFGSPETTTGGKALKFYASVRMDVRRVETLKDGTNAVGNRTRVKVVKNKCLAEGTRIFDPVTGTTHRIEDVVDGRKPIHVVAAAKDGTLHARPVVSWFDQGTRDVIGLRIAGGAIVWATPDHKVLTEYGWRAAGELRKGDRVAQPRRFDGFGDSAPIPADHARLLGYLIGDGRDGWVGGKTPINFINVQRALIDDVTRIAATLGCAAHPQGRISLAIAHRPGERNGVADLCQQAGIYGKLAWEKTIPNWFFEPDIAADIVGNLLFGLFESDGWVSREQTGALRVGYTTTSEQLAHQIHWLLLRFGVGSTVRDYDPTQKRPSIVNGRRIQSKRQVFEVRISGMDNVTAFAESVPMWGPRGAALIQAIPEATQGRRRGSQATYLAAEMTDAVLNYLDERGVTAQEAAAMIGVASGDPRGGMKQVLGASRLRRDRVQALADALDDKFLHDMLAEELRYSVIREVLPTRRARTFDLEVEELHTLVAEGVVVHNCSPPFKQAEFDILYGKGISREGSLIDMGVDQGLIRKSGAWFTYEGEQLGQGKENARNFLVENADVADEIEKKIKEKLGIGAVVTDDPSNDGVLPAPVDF

[15] = target: Beta-adrenergic receptor kinase 1 (Homo sapiens, UniProt P25098); assay: GRK2 inhibitors displacing RNA aptamer, dose response, biochemical, flow cytometry beads, FAM-aptamer, powder set 1 (AID 588720)
[16] = target: 5-hydroxytryptamine receptor 5A (Homo sapiens, UniProt P47898); assay: Counterscreen for agonists of OPRM1-OPRD1 heterodimerization: luminescence-based cell-based high throughput dose response assay to identify agonists of 5-hydroxytryptamine (serotonin) 5A receptor (HTR5A). [Related pubchem assays (depositor defined):AID504326, AID504355, AID504692, AID504904, AID504905]; type: functional
H4 [17] = assay: inhibitors of control reporter signal in H4 cells – cell-based, plate reader, dry powder samples, counter-screen for prion reporter project, dose response (AID 540255); type: functional; conditions: Homo sapiens
H4 [18] = assay: Inhibitors of Prion Protein 5' UTR mRNA Measured in Cell-Based System Using Plate Reader - 2078-01_Inhibitor_Dose_DryPowder_Activity. [Related pubchem assays (depositor defined):AID488894]; type: functional; conditions: Homo sapiens

Chain of Melanocortin receptor 4 (P32245 whole entry): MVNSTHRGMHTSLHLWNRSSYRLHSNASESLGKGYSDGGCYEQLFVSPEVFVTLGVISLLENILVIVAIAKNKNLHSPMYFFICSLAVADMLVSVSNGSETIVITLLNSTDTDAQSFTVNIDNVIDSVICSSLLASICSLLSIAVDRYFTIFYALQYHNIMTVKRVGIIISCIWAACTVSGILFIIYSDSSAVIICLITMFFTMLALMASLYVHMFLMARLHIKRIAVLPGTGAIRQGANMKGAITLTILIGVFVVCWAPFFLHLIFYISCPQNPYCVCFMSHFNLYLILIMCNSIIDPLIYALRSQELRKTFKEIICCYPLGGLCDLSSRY
Chain of 5-hydroxytryptamine receptor 5A (P47898 whole entry): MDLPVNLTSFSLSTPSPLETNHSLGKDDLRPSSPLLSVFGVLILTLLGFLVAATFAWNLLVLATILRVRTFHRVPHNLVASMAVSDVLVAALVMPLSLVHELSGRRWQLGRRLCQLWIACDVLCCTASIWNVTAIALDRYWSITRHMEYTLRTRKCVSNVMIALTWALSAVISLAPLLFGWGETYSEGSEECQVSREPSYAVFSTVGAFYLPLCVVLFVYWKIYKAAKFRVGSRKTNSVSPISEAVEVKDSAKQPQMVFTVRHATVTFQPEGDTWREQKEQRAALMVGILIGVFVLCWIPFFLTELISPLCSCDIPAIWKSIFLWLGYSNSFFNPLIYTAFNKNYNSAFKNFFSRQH
Chain of Beta-adrenergic receptor kinase 1 (P25098 whole entry): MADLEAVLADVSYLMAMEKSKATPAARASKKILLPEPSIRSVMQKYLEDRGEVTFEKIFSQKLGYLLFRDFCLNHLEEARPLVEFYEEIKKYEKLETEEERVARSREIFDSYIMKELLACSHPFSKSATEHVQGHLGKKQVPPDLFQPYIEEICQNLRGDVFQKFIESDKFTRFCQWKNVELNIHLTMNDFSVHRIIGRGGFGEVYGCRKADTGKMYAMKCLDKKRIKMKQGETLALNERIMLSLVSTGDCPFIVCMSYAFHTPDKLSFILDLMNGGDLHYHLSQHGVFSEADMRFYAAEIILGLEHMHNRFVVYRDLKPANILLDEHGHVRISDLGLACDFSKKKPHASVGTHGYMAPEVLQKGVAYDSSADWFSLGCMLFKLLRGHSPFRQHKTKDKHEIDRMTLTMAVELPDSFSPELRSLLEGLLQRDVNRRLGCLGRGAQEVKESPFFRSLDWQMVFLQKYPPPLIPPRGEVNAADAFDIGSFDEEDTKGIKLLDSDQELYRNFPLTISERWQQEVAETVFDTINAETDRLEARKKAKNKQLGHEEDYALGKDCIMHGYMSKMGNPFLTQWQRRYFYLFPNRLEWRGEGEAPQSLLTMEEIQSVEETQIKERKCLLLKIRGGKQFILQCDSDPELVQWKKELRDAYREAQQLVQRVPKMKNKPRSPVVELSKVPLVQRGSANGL

Question: What does the source list for `COc1ccc(CCC(=O)N2CCc3ccccc32)cc1`?
Answer: AC50 (A-375 [1]): > 35 µM (active); AC50 (A-375 [2]): > 35 µM (active)

Question: With `C#CC(=O)N(c1cc(OC)ccc1OC)C(C(=O)NC1CCCC1)c1cccs1` (stereo unspecified) as the compound, how does the AC50 [3] read?
Answer: 1.94 µM (active)

Question: What about the IC50 [4] of the same compound?
Answer: > 100 µM (active)

Question: What about the IC50 [5] of the same compound?
Answer: > 64.6 µM (inactive)

Question: And the AC50 [6]?
Answer: 0.563 µM (active)

Question: And the IC50 [7]?
Answer: 55.6 µM (inactive)

Question: And the IC50 (Melanocortin receptor 4)?
Answer: > 64.6 µM (inactive)

Question: And the AC50 [8]?
Answer: 1.25 µM (active)

Question: And the EC50 [9]?
Answer: 0.692 µM (active)

Question: What about the EC50 [10] of the same compound?
Answer: 3.99 µM (active)

Question: And the IC50 (Jurkat)?
Answer: 0.23 µM (active)

Question: And the EC50 [11]?
Answer: 4.13 µM (active)

Question: And the IC50 [12]?
Answer: 0.096 µM (active)

Question: What about the AC50 [13] of the same compound?
Answer: 4.57 µM (active)

Question: What about the CC50 [14] of the same compound?
Answer: 0.087 µM (active)

Question: And the EC50 (Protein RecA)?
Answer: 2.46 µM (active)

Question: Which EC50 [15] does the source give for `CCOc1ccc(CCNC(=O)CCS(=O)(=O)c2ccc(Br)cc2)cc1OCC` here?
Answer: 17.7 µM (inactive)

Question: With `C=CCN1C[C@@H](C)N(C(c2ccc(C(=O)N(CC)CC)cc2)c2cccc(OC)c2)C[C@@H]1C` (stereo partly specified) as the compound, how does the EC50 [16] read?
Answer: > 92.5 µM (inactive)

Question: Which results are given for `CCCCc1ccc(-n2nc3cc(Cl)c(C(=O)NC(C)(C)C)cc3n2)cc1`?
Answer: AC50 (H4 [17]): < 0.02 µM (active); AC50 (H4 [18]): 0.032 µM (active)
